Experimental data reported in US4070469A, “Compound for the treatment of bovine mastitis” (priority 1975, dated 1978).
≈ marks a conversion by molar mass, not a printed value. Read-outs that look alike come from different tables or passages of the source.

Key:
udder = experiment: Number of leucocytes (somatic cells) in milk / irritation of the udder; assay type: in vivo, cow; details: for number of leucocytes (sematic cells) in milk, 40 hrs.: 40 hrs after 500 mg in 7 ml P.E.G. base; for number of leucocytes (sematic cells) in milk, 48 hrs.: 48 hrs after 500 mg in 7 ml P.E.G. base; for number of leucocytes (sematic cells) in milk, 56 hrs.: 56 hrs after 500 mg in 7 ml P.E.G. base; for number of leucocytes (sematic cells) in milk, before: before administration (baseline)
Method: Thereafter 500 mg of each of said compounds in 7 ml of a P.E.G. base and also 7 ml of said base above were administered to several cows and the number of leucocytes (sematic cells) in 10^6 per ml of milk were measured before administration and 40, 48 and 56 hours thereafter. The numbers of leucocytes present indicate the degree of irritation of the udder.

[1] = Residue of active compound in milk of the cow; assay type: in vivo; details: bovine, milk, 500 mg in 7 ml P.E.G. base
Method: Said four compounds were then tested for the length of time they could be detected in the milk of the cow. For this purpose 500 mg in 7 ml of a polyethylene glycol (P.E.G.) base of each compound were administered to several cows and the residue of active compound in milk were measured in mcg/ml after 24, 32 and 40 hours respectively.

[2] = tested on: Strep.uberis and Stap.Aureus; experiment: Activity against mastitis bacteria in presence of milk (Table I, summary in words); assay type: cell-based
Description: (§1) The activity of some of said nitrofuryl quinolines derivatives against Strep.uberis and Stap.Aureus in milk has been compared with the activity of some of the compounds so far utilised in the treatment of bovine mastitis. The results are shown in Table I. (The nitrofuryl quinoline derivatives have general formula [drawing 1] the meaning of R, A, R', B, Y, X and Z being given in the Table. R1 =O whenever indicated then the N-oxide is concerned; NF stands for nitrofuryl)

Staph.Aureus = experiment: Minimal bactericidal activity (MBC) in milk, field isolates; assay type: cell-based; details: Staphylococcus aureus, in milk at pH 7.2 - 7.4
Description: as §1
(§2) Minimal Bactericidal/Activity (MBC) of representative Nitrofuryl
(§3) in mcg/ml in milk at pH 7.2 - 7.4. Versus Standards (Field

Strep.uberis = experiment: as above; assay type: cell-based; details: Streptococcus uberis, in milk at pH 7.2 - 7.4
Description: as §1, §2, §3

[3] = field isolate 2337, read-out: Minimal Bactericidal Activity (MBC), Staph.Aureus 2337
[4] = field isolate 2372, read-out: Minimal Bactericidal Activity (MBC), Staph.Aureus 2372
[5] = field isolate 60B, read-out: Minimal Bactericidal Activity (MBC), Strep.uberis 60B
[6] = field isolate 127A, read-out: Minimal Bactericidal Activity (MBC), Strep.uberis 127A

Row | concentration at 24 h [1] | concentration at 32 h [1] | SMILES | number of leucocytes (sematic cells) in milk, 40 hrs. (udder) | number of leucocytes (sematic cells) in milk, 48 hrs. (udder) | number of leucocytes (sematic cells) in milk, 56 hrs. (udder) | number of leucocytes (sematic cells) in milk, before (udder) | activity in presence of milk (in words) [2] | MBC (Staph.Aureus; [3]) | MBC (Staph.Aureus; [4]) | MBC (Strep.uberis; [5]) | MBC (Strep.uberis; [6])
1 | 20000 ng/mL |  | Cc1cc(-c2ccc([N+](=O)[O-])o2)c2ccc(O)cc2[n+]1[O-] [Compound 22] | 5 10^6 per ml | 5 10^6 per ml | 3.15 10^6 per ml | 0.28 10^6 per ml | significant activity in milk | 1 µg/mL (≈ 3.49 µM) | 0.5 µg/mL (≈ 1.75 µM) | 0.12 µg/mL (≈ 0.419 µM) | 0.5 µg/mL (≈ 1.75 µM)
2 |  |  | CCc1ccc2c(c1)c(-c1ccc([N+](=O)[O-])o1)cc(CC)[n+]2[O-] [Compound 32] |  |  |  |  |  | > 10 µg/mL | > 10 µg/mL | 1 µg/mL (≈ 3.2 µM) | > 10 µg/mL
3 |  |  | O=[N+]([O-])c1ccc(-c2cc(C(Br)(Br)Br)nc3ccccc23)o1 [Compound 14] |  |  |  |  |  | 10 µg/mL (≈ 20.4 µM) | > 10 µg/mL | 5 µg/mL (≈ 10.2 µM) | 5 µg/mL (≈ 10.2 µM)
4 | 26500 ng/mL | 5000 ng/mL | COc1ccc2c(-c3ccc([N+](=O)[O-])o3)cc[n+]([O-])c2c1 [Compound 19] | 5 10^6 per ml | 3 10^6 per ml | 2 10^6 per ml | 0.60 10^6 per ml | significant activity in milk | 0.5 µg/mL (≈ 1.75 µM) | 0.5 µg/mL (≈ 1.75 µM) | 0.12 µg/mL (≈ 0.419 µM) | 0.5 µg/mL (≈ 1.75 µM)
5 |  |  | COc1cc2nc(C)cc(-c3ccc([N+](=O)[O-])o3)c2cc1N [Compound 34] |  |  |  |  |  | 5 µg/mL (≈ 16.7 µM) | 5 µg/mL (≈ 16.7 µM) | 0.25 µg/mL (≈ 0.835 µM) | 1 µg/mL (≈ 3.34 µM)
6 |  |  | O=[N+]([O-])c1ccc(-c2cc[n+]([O-])c3ccccc23)o1 [Compound 41] |  |  |  |  |  | 10 µg/mL (≈ 39 µM) | 5 µg/mL (≈ 19.5 µM) | 5 µg/mL (≈ 19.5 µM) | 10 µg/mL (≈ 39 µM)
7 |  |  | Cc1ccc2nc(C)cc(-c3ccc([N+](=O)[O-])o3)c2c1 [Compound 27] |  |  |  |  |  | 10 µg/mL (≈ 37.3 µM) | 10 µg/mL (≈ 37.3 µM) | 10 µg/mL (≈ 37.3 µM) | 10 µg/mL (≈ 37.3 µM)
8 |  |  | O=C(O)c1cc(-c2ccc([N+](=O)[O-])o2)c2ccccc2n1 [Compound 2, 4-(5-nitrofuryl)-quinaldinic acid] |  |  |  |  |  | 1 µg/mL (≈ 3.52 µM) | 0.5 µg/mL (≈ 1.76 µM) | 0.12 µg/mL (≈ 0.422 µM) | 1 µg/mL (≈ 3.52 µM)
9 | 12000 ng/mL | 5000 ng/mL | CCOc1ccc2c(-c3ccc([N+](=O)[O-])o3)cc(C(=O)O)[n+]([O-])c2c1 [Compound 26] | > 7.5 10^6 per ml | 3 10^6 per ml | 2.65 10^6 per ml | 0.22 10^6 per ml | significant activity in milk | 1 µg/mL (≈ 2.9 µM) | 1 µg/mL (≈ 2.9 µM) | 0.03 µg/mL (≈ 0.0871 µM) | 1 µg/mL (≈ 2.9 µM)
10 |  |  | CCc1ccc2nc(C)cc(-c3ccc([N+](=O)[O-])o3)c2c1 [Compound 7] |  |  |  |  |  | > 10 µg/mL | > 10 µg/mL | > 10 µg/mL | > 10 µg/mL
11 |  |  | Cc1cc(-c2ccc([N+](=O)[O-])o2)c2ccc(Cl)cc2n1 [Compound 28] |  |  |  |  |  | > 10 µg/mL | > 10 µg/mL | > 10 µg/mL | > 10 µg/mL
12 |  |  | Cc1cc(-c2ccc([N+](=O)[O-])o2)c2ccc(N)c(C)c2n1 [Compound 35] |  |  |  |  |  | 5 µg/mL (≈ 17.6 µM) | 5 µg/mL (≈ 17.6 µM) | 5 µg/mL (≈ 17.6 µM) | 10 µg/mL (≈ 35.3 µM)
13 |  |  | O=C(c1cc(-c2ccc([N+](=O)[O-])o2)c2ccccc2n1)N1CCOCC1 [Compound 18] |  |  |  |  |  | > 10 µg/mL | 10 µg/mL (≈ 28.3 µM) | 5 µg/mL (≈ 14.2 µM) | > 10 µg/mL
14 |  |  | O=[N+]([O-])c1ccc(-c2cc(CO)nc3ccccc23)o1 [Compound 13] |  |  |  |  |  | 10 µg/mL (≈ 37 µM) | 5 µg/mL (≈ 18.5 µM) | 5 µg/mL (≈ 18.5 µM) | > 10 µg/mL
15 |  |  | CCc1cc(-c2ccc([N+](=O)[O-])o2)c2cc(C)c(C)cc2[n+]1[O-] [Compound 40] |  |  |  |  |  | 5 µg/mL (≈ 16 µM) | 5 µg/mL (≈ 16 µM) | 5 µg/mL (≈ 16 µM) | 10 µg/mL (≈ 32 µM)
16 |  |  | CCc1ccc2c(c1)c(-c1ccc([N+](=O)[O-])o1)cc(C)[n+]2[O-] [Compound 20] |  |  |  |  |  | 5 µg/mL (≈ 16.8 µM) | 5 µg/mL (≈ 16.8 µM) | > 10 µg/mL | > 10 µg/mL
